Measured values published in patent US8901036B2, “Combinations of phenylsulfonylurea herbicides and safeners” (Bayer Cropscience AG, priority 1994, dated 2014).

What was measured:
Corn = assay: Effect and selectivity in corn: phytotoxicity; format: in vivo; conditions: corn 4 leaves
Method: (§1) Various crop plants are grown in plastic pots with a diameter of 9 cm in a glasshouse to the stated stage and then treated with the particular herbicide or with a mixture of the herbicide and the safener by the post-emergence method. This entails the herbicide of the formula (A) and the compounds of the formula (B) being applied in the form of aqueous suspensions or emulsions with a water application rate which converts to 300 l/ha. 4 weeks after the treatment, the plants are assessed visually for every type of damage by the applied herbicides, taking particular account of the extent of persistent growth inhibition. The evaluation takes place in percentages (scale from 0 to 100%) compared with untreated controls.

SVFA = assay: Effect and selectivity in corn: herbicidal effect; format: in vivo
Method: as §1

ECCG = assay: Effect and selectivity in corn: herbicidal effect; format: in vivo, Echinochloa crus-galli; conditions: start of tillering (4 to 5 leaves)
Method: as §1

SOHA = assay: Effect and selectivity in corn: herbicidal effect; format: in vivo, Sorghum halepense; conditions: 3 leaves
Method: as §1

Barley = assay: Phytotoxicity of herbicide/safener combinations in cereals, glasshouse post-emergence; format: in vivo; conditions: no safener, 4 weeks after treatment
Method: as §1

Wheat = assay: as above; format: in vivo; conditions: no safener, 4 weeks after treatment
Method: as §1

ALMY = assay: Herbicidal activity on grasses, post-emergence; format: in vivo, Alopecurus myosuroides; conditions: no safener, 4-leaf stage
Method: as §1

APSP = assay: Herbicidal activity on grasses, post-emergence; format: in vivo, Apera spica-venti; conditions: no safener, 4-leaf stage
Method: as §1

AVFA = assay: Herbicidal activity on grasses, post-emergence; format: in vivo, Avena fatua; conditions: no safener, 4-leaf stage
Method: as §1

POAN = assay: Herbicidal activity on grasses, post-emergence; format: in vivo, Poa annua; conditions: no safener, 4-leaf stage
Method: as §1

SMILES: COC(=O)Nc1ccc(C(=O)N(C)C)c(S(=O)(=O)NC(=O)Nc2nc(OC)cc(OC)n2)c1 [A13, N-(4,6-Dimethoxypyrimidin-2-ylaminocarbonyl)-2-(N,N-dimethylaminocarbonyl)-5-(N-methoxycarbonylamino)benzenesulfonamide]
- Phytotoxicity or herbicidal effect in % Corn (Corn; dose 25 g AS/ha): 10%
- Phytotoxicity or herbicidal effect in % Corn (Corn; dose 50 g AS/ha): 20%
- Phytotoxicity or herbicidal effect in % Corn (Corn; dose 100 g AS/ha): 30%
- Phytotoxicity or herbicidal effect in % SVFA (SVFA; dose 25 g AS/ha): 90%
- Phytotoxicity or herbicidal effect in % SVFA (SVFA; dose 50 g AS/ha): 95%
- Phytotoxicity or herbicidal effect in % ECCG (ECCG; dose 25 g AS/ha): 99%
- Phytotoxicity or herbicidal effect in % ECCG (ECCG; dose 50 g AS/ha): 100%
- Phytotoxicity or herbicidal effect in % SOHA (SOHA; dose 25 g AS/ha): 90%
- Phytotoxicity or herbicidal effect in % SOHA (SOHA; dose 50 g AS/ha): 97%

SMILES: CCC(=O)Nc1ccc(C(=O)N(C)C)c(S(=O)(=O)NC(=O)Nc2nc(OC)cc(OC)n2)c1.[Na] [A9, N-(4,6-Dimethoxypyrimidin-2-ylaminocarbonyl)-2-(N,N-dimethylaminocarbonyl)-5-(N-propionylamino)benzenesulfonamide sodium salt]
- Phytotoxicity or herbicidal effect in % Corn (Corn; dose 25 g AS/ha): 0%
- Phytotoxicity or herbicidal effect in % Corn (Corn; dose 50 g AS/ha): 15%
- Phytotoxicity or herbicidal effect in % Corn (Corn; dose 100 g AS/ha): 35%
- Phytotoxicity or herbicidal effect in % ECCG (ECCG; dose 25 g AS/ha): 99%
- Phytotoxicity or herbicidal effect in % ECCG (ECCG; dose 50 g AS/ha): 100%
- Phytotoxicity or herbicidal effect in % SOHA (SOHA; dose 25 g AS/ha): 98%
- Phytotoxicity or herbicidal effect in % SOHA (SOHA; dose 50 g AS/ha): 100%

SMILES: CCC(=O)N(C)c1ccc(C(=O)OC)c(S(=O)(=O)NC(=O)Nc2nc(OC)cc(OC)n2)c1.[Na] [A4, N-(4,6-Dimethoxypyrimidin-2-ylaminocarbonyl)-2-methoxycarbonyl-5-(N-methyl-N-propionylamino)benzenesulfonamide sodium salt]
- Phytotoxicity Barley (Barley; dose A 20 g AS/ha): 30%
- Phytotoxicity Barley (Barley; dose A 40 g AS/ha): 80%
- Phytotoxicity Wheat (Wheat; dose A 20 g AS/ha): 15%
- Phytotoxicity Wheat (Wheat; dose A 40 g AS/ha): 40%

SMILES: COc1cc(OC)nc(NC(=O)NS(=O)(=O)c2cc(NC=O)ccc2C(=O)N(C)C)n1 [A8, N-(4,6-Dimethoxypyrimidin-2-ylaminocarbonyl)-2-(N,N-dimethylaminocarbonyl)-5-(N-formylamino)benzenesulfonamide]
- Phytotoxicity or herbicidal effect in % SVFA (SVFA; dose 25 + 12 g AS/ha): 95%
- Phytotoxicity or herbicidal effect in % SVFA (SVFA; dose 50 + 25 g AS/ha): 100%
- Phytotoxicity or herbicidal effect in % ECCG (ECCG; dose 25 + 12 g AS/ha): 98%
- Phytotoxicity or herbicidal effect in % ECCG (ECCG; dose 50 + 25 g AS/ha): 100%
- Phytotoxicity or herbicidal effect in % SOHA (SOHA; dose 25 + 12 g AS/ha): 95%
- Phytotoxicity or herbicidal effect in % SOHA (SOHA; dose 50 + 25 g AS/ha): 98%

SMILES: COC(=O)c1ccc(CNS(C)(=O)=O)cc1S(=O)(=O)NC(=O)Nc1nc(OC)cc(OC)n1.[Na] [A10]
- Phytotoxicity Barley (Barley; dose A 6 g AS/ha): 5%
- Phytotoxicity Barley (Barley; dose A 12 g AS/ha): 15%
- Phytotoxicity Barley (Barley; dose A 25 g AS/ha): 55%
- Phytotoxicity Wheat (Wheat; dose A 6 g AS/ha): 15%
- Phytotoxicity Wheat (Wheat; dose A 12 g AS/ha): 25%
- Phytotoxicity Wheat (Wheat; dose A 25 g AS/ha): 30%
- % effect on ALMY (ALMY; dose A 6 g AS/ha): 98%
- % effect on ALMY (ALMY; dose A 12 g AS/ha): 100%
- % effect on ALMY (ALMY; dose A 25 g AS/ha): 100%
- % effect on APSP (APSP; dose A 6 g AS/ha): 80%
- % effect on APSP (APSP; dose A 12 g AS/ha): 97%
- % effect on APSP (APSP; dose A 25 g AS/ha): 99%
- % effect on AVFA (AVFA; dose A 6 g AS/ha): 75%
- % effect on AVFA (AVFA; dose A 12 g AS/ha): 85%
- % effect on AVFA (AVFA; dose A 25 g AS/ha): 90%
- % effect on POAN (POAN; dose A 6 g AS/ha): 85%
- % effect on POAN (POAN; dose A 12 g AS/ha): 99%
- % effect on POAN (POAN; dose A 25 g AS/ha): 100%

SMILES: COC(=O)c1ccc(CN(C)C=O)cc1S(=O)(=O)NC(=O)Nc1nc(OC)cc(OC)n1.[Na] [A2, N-(4,6-Dimethoxypyrimidin-2-ylaminocarbonyl)-2-methoxycarbonyl-5-(N-formyl-N-methylaminomethyl)benzenesulfonamide sodium salt]
- Phytotoxicity Barley (Barley; dose A 10 g AS/ha): 40%
- Phytotoxicity Barley (Barley; dose A 20 g AS/ha): 80%
- Phytotoxicity Wheat (Wheat; dose A 10 g AS/ha): 20%
- Phytotoxicity Wheat (Wheat; dose A 20 g AS/ha): 60%
